Measured values: patent publication US20190038632A1 (BAYER PHARMA AKTIENGESELLSCHAFT, priority 2016, published 2019)
“And” between values parts separate entries of the source, which are not always exact repeats. Equal values may be shown once.

Test system: NHL patients
Test: clinical study A: copanlisib therapy in NHL patients, best response and PFS, also by baseline tumor gene expression
Assay type: in vivo, human
Conditions: for PFS (Independent*) Days / Best Response (Independent*): one line per subject; for PFS (Independent*) Days: censor status in column beside
[1] = mantle cell lymphoma patients (N = 2)

Description: Best response status and progression-free survival (hereinafter referred to as “PFS”) from independent review assessment were used for gene expression analysis.
Bioinformatics and statistical analyses were done for all 24 NHL patients.
A weighted gene expression score (hereinafter referred to as “WGS”) reflecting the overall expression level for each gene set was generated from logistic regression and Cox proportional hazards models to assess the association with response status (best-response-WGS) and PFS (PFS-WGS), respectively.
Both the best-response-WGS as well as the PFS-WGS were in turn used in logistic regression or Cox regression models to assess the association of either WGS with the endpoints. Moreover, the raw best-response WGS was used to compute non-cross validated AUC estimates for responder (CR+PR) and non-responder (SD+PD) classifications.

SMILES: COc1c(OCCCN2CCOCC2)ccc2c1N=C(NC(=O)c1cnc(N)nc1)N1CCN=C21 [copanlisib]
- HR for PFS (CSTB, median gene expression level as cutoff, p=0.07): 3.3 (0.9-12)
- median PFS days (CSTB, median gene expression level as cutoff, shorter-PFS group (high expression per text)): 74 days
- HR for PFS (MT2A, median gene expression level as cutoff, p=0.30): 1.3 (0.8-2.2)
- PFS (NHL patients with low BCR WGS (median cut-off 41.7)): 62 days
- HR for PFS (NOP10, median gene expression level as cutoff, p=0.23): 1.9 (0.7-5.4)
- PFS (Independent*) Days (diffuse large B-cell lymphoma patients (N = 5)): 56 days and 13 days and 49 days
- PFS (Independent*) Days (follicular lymphoma patients (N = 10)): 53 days and 74 days and 28 days
- Best Response (Independent*) (follicular lymphoma patients (N = 10), data cutoff February 2015): CRu
- HR for PFS (high vs low BCR WGS, nominal Cox model p<0.0001): 0.035
- HR for PFS (high vs low GPR18 expression, nominal Cox model p<0.01): 0.17
- Best Response (Independent*) [1]: CRu
- PFS (Independent*) Days [1]: 7 days
- PFS (Independent*) Days (trans. indolent lymphoma patients (N = 2)): 16 days and 42 days
